Ki data for 45 compounds are collected here from US20110263629A1, “AMIDES OF DIAZABICYCLOOCTANES AND USES THEREOF” (Targacept, Inc., priority 2008, published 2011).

Like-named read-outs stand apart in the source and are kept apart here.

One test deals with T1, human α4β2 nAChR subtype (Homo sapiens, UniProt P17787+P43681).
T1 construct: expressed in transfected cells; host or cells: SH-EP1 clonal cells expressing human α4β2
The test can be described thus: Radioligand binding ([3H]nicotine) at human α4β2 nAChR, SH-EP1/human α4β2 clonal cell membranes. As to the method: Preparation of membranes from SH-EP1/human α4β2 clonal cells: Cell pellets from 40 150 mm culture dishes were pooled, and homogenized by Polytron (Kinematica GmbH, Switzerland) in 20 milliliters of ice-cold preparative buffer. The homogenate was centrifuged at 48,000 g for 20 minutes at 4° C. The resulting pellet was re-suspended in 20 mL of ice-cold preparative buffer and stored at −20° C.
(§1) On the day of the assay, the frozen membranes were thawed and spun at 48,000×g for 20 min. The supernatant was decanted and discarded. The pellet was resuspended in Dulbecco's phosphate buffered saline (PBS, Life Technologies) pH 7.4 and homogenized with the Polytron for 6 seconds. Protein concentrations were determined using a Pierce BCA Protein Assay Kit, with bovine serum albumin as the standard (Pierce Chemical Company, Rockford, Ill.).
(§2) Incubation was terminated by rapid filtration on a multi-manifold tissue harvester (Brandel, Gaithersburg, Md.) using GF/B filters presoaked in 0.33% polyethyleneimine (w/v) to reduce non-specific binding. Tissue was rinsed 3 times in PBS, pH 7.4. Scintillation fluid was added to filters containing the washed tissue and allowed to equilibrate. Filters were then counted to determine radioactivity bound to the membranes by liquid scintillation counting (2200CA Tri-Carb LSC, Packard Instruments, 50% efficiency or Wallac Trilux 1450 MicroBeta, 40% efficiency, Perkin Elmer).
(§3) Data were expressed as disintegrations per minute (DPMs). Within each assay, each point had 2-3 replicates. The replicates for each point were averaged and plotted against the log of the drug concentration. IC50, which is the concentration of the compound that produces 50% inhibition of binding, was determined by least squares non-linear regression. Ki values were calculated using the Cheng-Prussof equation (1973): […]

The next test has as its target T2, rat α4β2 nAChR subtype (Rattus norvegicus, UniProt P09483+P12390).
T2 construct: Preparation of membranes from rat cortex; from tissue; host or cells: rat cerebral cortex membranes
Put plainly: Radioligand binding ([3H]nicotine) at rat α4β2 nAChR, rat cortex membranes. On the procedure:
Preparation of membranes from rat cortex: Rats (female, Sprague-Dawley), weighing 150-250 g, were maintained on a 12 h light/dark cycle and were allowed free access to water and food supplied by PMI Nutrition International, Inc. Animals were anesthetized with 70% CO2, and then decapitated. Brains were removed and placed on an ice-cold platform. The cerebral cortex was removed and placed in 20 volumes (weight:volume) of ice-cold preparative buffer (137 mM NaCl, 10.7 mM KCl, 5.8 mM KH2PO4, 8 mM Na2HPO4, 20 mM HEPES (free acid), 5 mM iodoacetamide, 1.6 mM EDTA, pH 7.4); PMSF, dissolved in methanol to a final concentration of 100 μM, was added and the suspension was homogenized by Polytron. The homogenate was centrifuged at 18,000×g for 20 min at 4° C. and the resulting pellet was re-suspended in 20 volumes of ice-cold water. After 60 min incubation on ice, a new pellet was collected by centrifugation at 18,000×g for 20 min at 4° C. The final pellet was re-suspended in 10 volumes of buffer and stored at −20° C.
as §1, §2, §3

The mark [1] stands for this setting: rat cortex membranes, 5 nM [3H]nicotine, read-out: Rat α4β2 Ki.
[2] abbreviates: SH-EP1/human α4β2 cell membranes, 5 nM [3H]nicotine, read-out: Human α4β2 Ki.

T1 sequence (P43681 29-627 limits assumed): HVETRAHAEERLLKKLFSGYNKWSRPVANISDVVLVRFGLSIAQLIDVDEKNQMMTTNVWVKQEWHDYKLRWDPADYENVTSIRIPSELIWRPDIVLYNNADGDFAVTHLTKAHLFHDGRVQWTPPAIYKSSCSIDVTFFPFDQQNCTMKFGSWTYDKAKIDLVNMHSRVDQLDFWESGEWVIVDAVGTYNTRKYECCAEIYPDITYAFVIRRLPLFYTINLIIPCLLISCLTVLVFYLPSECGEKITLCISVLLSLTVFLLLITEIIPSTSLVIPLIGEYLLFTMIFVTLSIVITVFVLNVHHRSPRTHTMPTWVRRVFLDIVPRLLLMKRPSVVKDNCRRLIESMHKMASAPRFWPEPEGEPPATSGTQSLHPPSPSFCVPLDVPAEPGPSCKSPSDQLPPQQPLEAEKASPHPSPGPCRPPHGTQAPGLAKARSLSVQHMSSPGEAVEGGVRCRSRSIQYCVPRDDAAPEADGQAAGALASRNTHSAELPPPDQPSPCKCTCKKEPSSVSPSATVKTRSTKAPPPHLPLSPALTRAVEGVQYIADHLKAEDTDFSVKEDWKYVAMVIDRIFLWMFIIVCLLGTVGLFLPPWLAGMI
T1 sequence (P17787 26-502): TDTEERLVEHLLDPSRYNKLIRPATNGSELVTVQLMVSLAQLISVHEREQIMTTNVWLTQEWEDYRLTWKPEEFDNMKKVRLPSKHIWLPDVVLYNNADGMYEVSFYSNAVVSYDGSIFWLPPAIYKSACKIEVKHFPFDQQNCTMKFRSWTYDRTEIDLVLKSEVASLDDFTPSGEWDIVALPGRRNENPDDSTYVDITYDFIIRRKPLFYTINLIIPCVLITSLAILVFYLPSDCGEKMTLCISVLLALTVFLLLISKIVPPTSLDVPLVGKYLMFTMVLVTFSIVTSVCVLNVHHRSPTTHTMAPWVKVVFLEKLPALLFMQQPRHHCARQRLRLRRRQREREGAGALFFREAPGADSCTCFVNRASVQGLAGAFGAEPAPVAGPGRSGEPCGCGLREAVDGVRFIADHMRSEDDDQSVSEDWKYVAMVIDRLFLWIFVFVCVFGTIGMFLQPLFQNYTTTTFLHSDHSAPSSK
T2 sequence (P09483 31-630): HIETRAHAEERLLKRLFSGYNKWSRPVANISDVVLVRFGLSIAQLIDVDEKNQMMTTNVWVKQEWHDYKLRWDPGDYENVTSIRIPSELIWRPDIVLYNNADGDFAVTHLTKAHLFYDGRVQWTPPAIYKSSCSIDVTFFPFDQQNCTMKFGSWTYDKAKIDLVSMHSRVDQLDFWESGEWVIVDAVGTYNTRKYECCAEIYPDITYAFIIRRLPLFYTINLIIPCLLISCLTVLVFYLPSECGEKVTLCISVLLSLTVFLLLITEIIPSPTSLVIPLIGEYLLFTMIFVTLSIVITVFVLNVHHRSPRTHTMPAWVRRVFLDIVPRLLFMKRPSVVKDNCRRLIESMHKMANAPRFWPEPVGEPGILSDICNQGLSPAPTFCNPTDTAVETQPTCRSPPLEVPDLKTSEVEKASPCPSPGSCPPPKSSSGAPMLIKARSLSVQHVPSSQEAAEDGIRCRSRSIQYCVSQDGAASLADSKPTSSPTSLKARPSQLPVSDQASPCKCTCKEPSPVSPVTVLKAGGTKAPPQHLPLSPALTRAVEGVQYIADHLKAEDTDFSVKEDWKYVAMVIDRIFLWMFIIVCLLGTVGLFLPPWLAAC
T2 sequence (P12390 25-500): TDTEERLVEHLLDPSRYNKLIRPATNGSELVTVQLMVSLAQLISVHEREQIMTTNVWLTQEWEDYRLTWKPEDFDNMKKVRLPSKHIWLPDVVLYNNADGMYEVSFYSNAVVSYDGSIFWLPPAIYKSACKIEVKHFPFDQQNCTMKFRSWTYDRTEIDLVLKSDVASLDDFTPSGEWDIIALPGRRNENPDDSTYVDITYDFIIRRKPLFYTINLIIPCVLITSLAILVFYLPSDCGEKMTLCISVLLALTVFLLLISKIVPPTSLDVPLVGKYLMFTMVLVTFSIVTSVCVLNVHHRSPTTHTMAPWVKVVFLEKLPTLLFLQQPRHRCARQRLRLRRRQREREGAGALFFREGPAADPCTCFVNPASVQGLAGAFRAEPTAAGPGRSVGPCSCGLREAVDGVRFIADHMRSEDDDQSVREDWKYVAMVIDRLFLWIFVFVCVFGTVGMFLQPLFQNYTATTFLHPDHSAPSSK

`CCOC(=O)N1C[C@H]2CNC[C@@H]1C2`: the Ki (as a rule, a measure of affinity in units of concentration, obtained from inhibition or displacement) on human α4β2 nAChR subtype (read-out: Human α4β2 Ki) turned out to be 1.4 µM.
Consider `CC(C)OC(=O)N1C[C@H]2CN[C@H](C2)C1`, for which the inhibition constant (Ki) on rat α4β2 nAChR subtype (read-out: Rat α4β2 Ki) was found to be 0.024 µM; on human α4β2 nAChR subtype (read-out: Human α4β2 Ki), 0.044 µM.
For the compound `CC(C)OC(=O)N1C[C@@H]2CN[C@@H](C2)C1`, the figures for the inhibitory constant (Ki) on rat α4β2 nAChR subtype (setting [1]) and on human α4β2 nAChR subtype (setting [2]) were 0.97 µM and 0.56 µM, respectively.
Take `CCS(=O)(=O)N1C[C@@H]2CN[C@@H](C2)C1`: the Ki on human α4β2 nAChR subtype (read-out: Human α4β2 Ki) amounted to 1.2 µM.
With `COC(=O)N1C[C@@H]2CN[C@@H](C2)C1`, the Ki on rat α4β2 nAChR subtype (read-out: Rat α4β2 Ki) worked out at 0.1 µM; at human α4β2 nAChR subtype (setting [2]) it was 0.12 µM.
`COC(=O)N1C[C@H]2CNC[C@@H]1C2`: the inhibitory constant (Ki) on human α4β2 nAChR subtype (setting [2]) came out at 5.7 µM.
On to `C=CCNC(=S)N1C[C@@H]2CN[C@@H](C2)C1`, for which the Ki at rat α4β2 nAChR subtype (read-out: Rat α4β2 Ki) is 9.9 µM; at human α4β2 nAChR subtype (read-out: Human α4β2 Ki), more than 10 µM.
Turning to `C/C=C/CC(=O)N1C[C@@H]2CN[C@@H](C2)C1`, the Ki at rat α4β2 nAChR subtype (read-out: Rat α4β2 Ki) came out at 0.18 µM; at human α4β2 nAChR subtype (read-out: Human α4β2 Ki), 0.22 µM.
Turning to `O=C([C@H]1C[C@@H]1F)N1C[C@@H]2CNC[C@H]1C2`, on human α4β2 nAChR subtype (read-out: Human α4β2 Ki), the inhibition constant (Ki) amounted to 0.011 µM.
For `CC(=O)N1C[C@@H]2CN[C@@H](C2)C1`, the Ki at rat α4β2 nAChR subtype (setting [1]) is 0.58 µM; on human α4β2 nAChR subtype (setting [2]), 0.73 µM.
As for `COCCOC(=O)N1C[C@H]2CN[C@H](C2)C1`, the values for the Ki on rat α4β2 nAChR subtype (read-out: Rat α4β2 Ki) and at human α4β2 nAChR subtype (setting [2]) were 0.074 µM and 0.31 µM, respectively.
With `CC(C)C(=O)N1C[C@@H]2CNC[C@H]1C2`, on human α4β2 nAChR subtype (read-out: Human α4β2 Ki), the Ki amounted to 0.59 µM.
On the same count and under the same terms, the result for `O=C([C@@H]1C[C@H]1F)N1C[C@H]2CNC[C@@H]1C2` reads 0.23 µM; that for `CCCS(=O)(=O)N1C[C@@H]2CN[C@@H](C2)C1`, 2.8 µM; that for `CCC(=O)N1C[C@@H]2CNC[C@H]1C2`, 0.027 µM.
For the compound `CN1C[C@H]2C[C@@H]1CN(C(=O)C1CC1)C2`, the Ki on rat α4β2 nAChR subtype (read-out: Rat α4β2 Ki) was 0.019 µM; on human α4β2 nAChR subtype (read-out: Human α4β2 Ki), 0.018 µM.
With `O=C(Oc1ccc(F)cc1)N1C[C@H]2CN[C@H](C2)C1`, the inhibition constant Ki came out at 0.045 µM at rat α4β2 nAChR subtype and 0.31 µM on human α4β2 nAChR subtype.
As for `COc1ccc(S(=O)(=O)N2C[C@@H]3CN[C@@H](C3)C2)cc1`, the Ki on rat α4β2 nAChR subtype (read-out: Rat α4β2 Ki) is 0.75 µM; on human α4β2 nAChR subtype (read-out: Human α4β2 Ki), 0.58 µM.
On to `CCCC(=O)N1C[C@@H]2CNC[C@H]1C2`, for which the Ki on human α4β2 nAChR subtype (read-out: Human α4β2 Ki) was 0.034 µM.
As for `COC(=O)N1C[C@@H]2CNC[C@H]1C2`, the values for the inhibition constant Ki on rat α4β2 nAChR subtype (read-out: Rat α4β2 Ki) and at human α4β2 nAChR subtype (read-out: Human α4β2 Ki) were 0.04 µM and 0.086 µM, respectively.
For the compound `CCCCC(=O)N1C[C@@H]2CN[C@@H](C2)C1`, the Ki worked out at 0.036 µM at rat α4β2 nAChR subtype (read-out: Rat α4β2 Ki) and 0.077 µM on human α4β2 nAChR subtype (read-out: Human α4β2 Ki).
Turning to `O=C([C@H]1C[C@H]1F)N1C[C@@H]2CNC[C@H]1C2`, the Ki on rat α4β2 nAChR subtype (read-out: Rat α4β2 Ki) was found to be 0.0029 µM; on human α4β2 nAChR subtype (read-out: Human α4β2 Ki), 0.0037 µM.
In the same order, the values of `O=C(C1CC1)N1CC2CNCC1C2` (stereo not shown) are 0.0056 µM and 0.0034 µM.
Take `O=C(C1CCOC1)N1C[C@@H]2CN[C@@H](C2)C1` (stereo partly shown): the inhibitory constant (Ki) on rat α4β2 nAChR subtype (setting [1]) came out at 0.14 µM; at human α4β2 nAChR subtype (read-out: Human α4β2 Ki) it was 0.046 µM.
Regarding `O=C(C1CC12CCC2)N1C[C@@H]2CN[C@@H](C2)C1` (stereo partly shown), the Ki at rat α4β2 nAChR subtype (read-out: Rat α4β2 Ki) was determined as 0.003 µM; at human α4β2 nAChR subtype (read-out: Human α4β2 Ki), 0.0023 µM.
In the case of `O=C(CC(F)(F)F)N1C[C@@H]2CN[C@@H](C2)C1`, the values for the Ki on rat α4β2 nAChR subtype (setting [1]) and at human α4β2 nAChR subtype (read-out: Human α4β2 Ki) were 0.11 µM and 0.073 µM, respectively.
Regarding `CC1(C)C(C(=O)N2CC3CNC(C3)C2)C1(C)C` (stereo not shown), the Ki on human α4β2 nAChR subtype (read-out: Human α4β2 Ki) was found to be 8.6 µM.
`O=C(Nc1ccc(F)cc1)N1C[C@@H]2CN[C@@H](C2)C1`: the Ki at rat α4β2 nAChR subtype (read-out: Rat α4β2 Ki) was 2.2 µM; on human α4β2 nAChR subtype (read-out: Human α4β2 Ki), more than 10 µM.
With `CC(C)S(=O)(=O)N1C[C@@H]2CN[C@@H](C2)C1`, the Ki came out at 0.75 µM at rat α4β2 nAChR subtype (setting [1]) and 0.016 µM at human α4β2 nAChR subtype (read-out: Human α4β2 Ki).
Consider `O=C(C1CC1)N1C[C@@H]2CNC[C@H]1C2`, for which the Ki worked out at 0.007 µM on rat α4β2 nAChR subtype (read-out: Rat α4β2 Ki) and 0.004 µM at human α4β2 nAChR subtype (read-out: Human α4β2 Ki).
`COC(=O)N1CC2CNC(C2)C1` (stereo not shown): the Ki at rat α4β2 nAChR subtype (read-out: Rat α4β2 Ki) turned out to be 0.0068 µM; at human α4β2 nAChR subtype (read-out: Human α4β2 Ki), 0.012 µM.
In the same order, the values of `CC(=O)N1C[C@H]2CN[C@H](C2)C1` are 0.014 µM and 0.034 µM.
Turning to `CCNC(=O)N1C[C@@H]2CN[C@@H](C2)C1`, the Ki was found to be 0.16 µM at rat α4β2 nAChR subtype (read-out: Rat α4β2 Ki) and 0.56 µM on human α4β2 nAChR subtype (read-out: Human α4β2 Ki).
With `COC(=O)N1C[C@H]2CN[C@H](C2)C1`, the Ki on rat α4β2 nAChR subtype (read-out: Rat α4β2 Ki) came out at 0.0048 µM; at human α4β2 nAChR subtype (read-out: Human α4β2 Ki) it was 0.0079 µM.
Turning to `CC(C)(C)C(=O)N1C[C@H]2CN[C@H](C2)C1`, the Ki on rat α4β2 nAChR subtype (read-out: Rat α4β2 Ki) turned out to be 0.068 µM; on human α4β2 nAChR subtype (read-out: Human α4β2 Ki), 0.026 µM.
As for `CCCCS(=O)(=O)N1C[C@@H]2CN[C@@H](C2)C1`, the inhibitory constant (Ki) on human α4β2 nAChR subtype (read-out: Human α4β2 Ki) is 2.1 µM.
Regarding `CCOC(=O)N1C[C@@H]2CN[C@@H](C2)C1`, the results for the Ki at rat α4β2 nAChR subtype (read-out: Rat α4β2 Ki) and at human α4β2 nAChR subtype (read-out: Human α4β2 Ki) were 0.025 µM and 0.049 µM, respectively.
On to `CC(=O)N1C[C@@H]2CNC[C@H]1C2`, for which the Ki at human α4β2 nAChR subtype (read-out: Human α4β2 Ki) amounted to 1.3 µM.
For the compound `C=CCNC(=O)N1C[C@@H]2CN[C@@H](C2)C1`, the inhibitory constant (Ki) on rat α4β2 nAChR subtype (read-out: Rat α4β2 Ki) came out at 0.13 µM; on human α4β2 nAChR subtype (read-out: Human α4β2 Ki), 0.91 µM.
Take `O=C(C1CCC1)N1C[C@@H]2CNC[C@H]1C2`: on human α4β2 nAChR subtype (read-out: Human α4β2 Ki), the inhibition constant (Ki) was 0.023 µM.
Take `CCCOC(=O)N1C[C@@H]2CN[C@@H](C2)C1`: the Ki on rat α4β2 nAChR subtype (read-out: Rat α4β2 Ki) amounted to 0.043 µM; on human α4β2 nAChR subtype (read-out: Human α4β2 Ki), 0.094 µM.
Turning to `CC1(C)CC1C(=O)N1C[C@@H]2CN[C@@H](C2)C1` (stereo partly shown), the inhibition constant Ki on rat α4β2 nAChR subtype (read-out: Rat α4β2 Ki) stood at 0.049 µM; on human α4β2 nAChR subtype (read-out: Human α4β2 Ki), 0.031 µM.
Take `CC(C)CC(=O)N1C[C@@H]2CN[C@@H](C2)C1`: the results for the Ki on rat α4β2 nAChR subtype (read-out: Rat α4β2 Ki) and on human α4β2 nAChR subtype (read-out: Human α4β2 Ki) were 0.32 µM and 0.35 µM, respectively.
As to `CS(=O)(=O)N1C[C@@H]2CN[C@@H](C2)C1`, on human α4β2 nAChR subtype (read-out: Human α4β2 Ki), the inhibition constant (Ki) is 2.3 µM.
With `COCCOC(=O)N1C[C@@H]2CN[C@@H](C2)C1`, the inhibition constant Ki was 1 µM at rat α4β2 nAChR subtype (setting [1]) and 0.58 µM on human α4β2 nAChR subtype (setting [2]).
